Assay results reported in patent US7214676B2, “Spirotricyclic derivatives and their use as phosphodiesterase-7 inhibitors” (Warner-Lambert Company LLC, priority 2001, dated 2007).

Target: T1, PDE7A1 (Homo sapiens, UniProt Q13946)
T1 construct: made in house; host or cells: Sf21 insect cells, baculovirus expression system
Assay: In vitro inhibition of phosphodiesterase 7
Assay type: biochemical
Conditions: substrate cAMP 50 nM, reaction stopped after 10 minutes; read-out: IC50 PDE7
Procedure: The capacity of the compounds of the invention to inhibit cyclic nucleotide phosphodiesterases was evaluated by measuring their IC50 (concentration necessary to inhibit the enzymatic activity by 50%).
PDE3A3, PDE4D3, PDE7A1 were cloned and expressed in insect cells Sf21 using the baculovirus expression system and we uses directly the cell culture supernatant as enzyme source. The source of PDE1 and of PDE5 were human cell lines (respectively TPH1 human monocytes and MCF7 human breast adenocarcinoma).
They were obtained partially purified on an anion exchange column (Mono Q) according to a method adapted from Lavan B. E., Lakey T., Houslay M. D. Biochemical pharmacology, 1989, 38 (22), 4123–4136.
Measurement of the enzymatic activity for the various types of PDE was then made according to a method adapted from W. J. Thompson et al. 1979, Advances in Cyclic Nucleotide Research, Vol. 10: 69–92, ed. G. Brooker et al. Raven Press, NY.
The substrate used was cGMP for PDE1 and PDE5 and cAMP for PDE 3, PDE 4 and PDE 7. The substrate concentration was 0.2 μM for PDE 1, PDE 3 and PDE 5, 0,25 μM for PDE 4 and 50 nM for PDE 7.
The enzymatic reaction was stopped after 1 hour for PDE 1, PDE 3 and PDE 5 and 10 minutes for PDE 4 and PDE 7.

T1 sequence (Q13946 whole entry, species assumed): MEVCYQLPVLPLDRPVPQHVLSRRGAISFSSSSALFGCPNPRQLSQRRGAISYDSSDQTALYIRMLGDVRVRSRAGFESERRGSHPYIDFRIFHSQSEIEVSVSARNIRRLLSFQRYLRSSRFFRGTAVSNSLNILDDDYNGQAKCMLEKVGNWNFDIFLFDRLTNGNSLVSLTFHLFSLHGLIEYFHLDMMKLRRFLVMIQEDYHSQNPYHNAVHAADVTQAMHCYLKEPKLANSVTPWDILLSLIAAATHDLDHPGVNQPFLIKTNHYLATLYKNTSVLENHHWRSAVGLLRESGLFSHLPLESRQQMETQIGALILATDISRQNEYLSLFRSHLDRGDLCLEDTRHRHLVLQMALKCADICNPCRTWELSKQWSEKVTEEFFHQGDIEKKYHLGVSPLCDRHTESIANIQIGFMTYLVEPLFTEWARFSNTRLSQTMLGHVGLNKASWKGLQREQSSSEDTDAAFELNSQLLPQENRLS

Row | Structure (SMILES) | IC50 [µM]
1 | O=C1Nc2c(Cl)ccc(Cl)c2C2(CCCCC2)N1 [Example 15, 5′,8′-Dichlorospiro[cyclohexane-1-4′-3′,4′-dihydro)quinazolin]-2′(1′H)-one] | 0.014
2 | O=C1Nc2c(Cl)cc(-c3ccccc3)cc2C2(CCCCC2)N1 [Example 26, 8′-Chloro-6′-phenylspiro[cyclohexane-1-4′-(3′,4′-dihydro)quinazolin]-2′(1′H)-one] | 0.016
3 | O=C1Nc2c(Cl)cc(-c3ccc4[nH]ccc4c3)cc2C2(CCCCC2)N1 [Example 34, 8′-Chloro-6′-(1H-indol-5-yl)spiro[cyclohexane-1-4′-(3′,4′-dihydro)quinazolin]-2′(1H)-one] | 0.012
4 | CN1CCN(C(=O)c2ccc(-c3cc(Cl)c4c(c3)C3(CCCCC3)NC(=O)N4)cc2)CC1 [Example 38, 8′-Chloro-6′-[4-(4-methyl-piperazine-1-carbonyl)phenyl]spiro[cyclohexane-1-4′-(3′,4′-dihydro)quinazolin]-2′(1′H)-one] | 0.018
5 | CN(C)CCCNC(=O)c1cccc(-c2cc(Cl)c3c(c2)C2(CCCCC2)NC(=O)N3)c1 [Example 41, 8′-Chloro-6′-[3-(3-N-dimethylamino-propylcarboxamide)phenyl]spiro[-cyclohexane-1-4′-(3′,4′-dihydro)quinazolin]-2′(1′H)-one] | 0.02
6 | O=C1Nc2c(Cl)cc(-c3ccc(C(=O)N4CCN(c5ncccn5)CC4)cc3)cc2C2(CCCCC2)N1 [Example 51, 8′-Chloro-6′-[4-(4-pyrimidin-2-yl-piperazine-1-carbonyl)phenyl]spiro[-cyclohexane-1-4′-(3′,4′-dihydro)quinazolin]-2′(1′H)-one] | 0.008
7 | O=C1Nc2c(Cl)cc(-c3ccc(C(=O)N4CCN(CCN5CCOCC5)CC4)cc3)cc2C2(CCCCC2)N1 [Example 52, 8′-Chloro-6′-[4-(4-(2-morpholin-4-yl-ethyl)-piperazine-1-carbonyl)-phenyl]spiro[-cyclohexane-1-4′-(3′,4′-dihydro)quinazolin]-2′(1′H)-one] | 0.015
8 | O=C1Nc2c(Cl)cc(-c3ccc(C(=O)N4CCN(CC(=O)N5CCOCC5)CC4)cc3)cc2C2(CCCCC2)N1 [Example 53, 8′-Chloro-6′-[4-(4-(2-morpholin-4-yl-2-oxo-ethyl)-piperazine-1-carbonyl)-phenyl]spiro[-cyclohexane-1-4′-(3′,4′-dihydro)quinazolin]-2′(1′H)-one] | 0.013
9 | O=C1Nc2c(Cl)cc(-c3ccc(C(=O)N4CCN(CCOCCO)CC4)cc3)cc2C2(CCCCC2)N1 [Example 54] | 0.013
